The test system of one data set is 786-O RCC xenograft. Kind of data set: 786-O RCC xenograft tumor growth. To be noted: for effect on tumor volume: single agent, efficacy arms (FIG. 28). Format: in vivo, mouse. On the procedure:
(§1) Xenograft RCC models were generated as follows: Female NOD.SCID mice (6-8 weeks of age) were injected with A498 RCC cells (5×10^6 cells/mouse), female Balb/c Nude mice (6-8 weeks old) were implanted with 786-O RCC cells (5×10^6 cells/mouse) or Caki-1 RCC cells (6×10^6 cells/mouse), female Athymic Nude-Foxn1nu mice (7-8 weeks of age) were implanted with MFE280 endometrial cells (10×10^6 cells/mouse). Cells were implanted into the flank of animals.
(§2) Once tumor tumors reached volume of typically 150-250 mm^3, animals were randomized by tumor volume into the treatment groups of 8 or 10 animals per group. In the single animal trial with RCC PDX models, only one animal per group was enrolled.
(§3) Body weight and tumor volume were measured twice weekly. Tumor volume was calculated using the formula [tumor volume (mm^3)=π/6×length×width^2] and plotted as means+SEM. The percentage of tumor growth inhibition was calculated at the end of the study using the formula: […], if ΔT>0, ΔT, mean tumor volume of the drug-treated group on the observation day of the study—mean tumor volume of the drug-treated group on initial day of dosing; ΔC, mean tumor volume of the control group on the observation day of the study—mean tumor volume of the control group on initial day of dosing. Regression was calculated using the formula=100×ΔT/Tinitial, if ΔT<0. Animals with >50% regressions were partial responders. Animals with tumor volume of 0 (no measurable tumor) were considered as complete responders, and animals with <50% tumor regression and 30% growth over the baseline were considered as stable disease. Animals with tumors>30% increase over the baseline were considered progressive disease. The % change in body weight was calculated by the formula (body weight on observation day−body weight on initial day)/body weight on initial day×100%.

Data set [1] can be described thus: mouse body weight / tolerability. Type of data set: in vivo. The settings on record: for body weight loss: 786-O xenografts, single agent PO, 21 days (FIG. 26). The procedure: as §3
The test system of data set [2] is tumor vasculature of 786-O xenografts. Kind of data set: IHC of tumor vasculature in 786-O xenografts. Type of data set: in vivo, mouse. The procedure: (§4) Formalin-fixed paraffin-embedded samples were sectioned at 5 μm thickness and mounted on Superfrost Plus microscope slides (Fisher Scientific). All immunohistochemical (IHC) staining was performed on Bond Rx auto-stainer (Leica Biosystems) using the conventional TSA-amplified detection system. Primary antibodies used were as follows: α-CD31 (Abcam #ab182981), α-smooth muscle actin (SMA; Abcam #ab124964), α-Meca32 (Novus Biologicals #NB100-77668). TSA-conjugated Alexa488 and Alexa647 fluorophores from Invitrogen (#B40953 and #B40958) were used at 1:500 dilution. Slides were counterstained with DAPI and cover slipped using Mowiol antifade mounting media (Sigma #D2522).
(§5) Slides were imaged with Aperio Versa 200 (Leica Biosystems) whole-slide scanner using 10×/0.32NA objective, and the data were analyzed using custom-written macros in ImageJ/FIJI (NIH). Briefly, 150 μm of outer edges of the tumor sections were eliminated from the analysis. Gaussian-blurred DAPI channel was used to measure the area of the tissue. Scans of […] were processed with median filter to remove noise, then positive areas were measured with appropriate threshold levels. % positive area for each marker was calculated. CD31-SMA double positive areas were measured via image calculation of the binary images. One-way ANOVA and pair-wise comparisons were performed on the data using Prism GraphPad.
PERK is an adaptive stress response that links hypoxia and nutrient deprivation with proangiogenic signaling. The effect of HC-5404 on tumor vasculature when administered in combination with antiangiogenic VEGFR-TKIs was investigated.
As immature blood vessels mature, they develop a mural layer of cells that express smooth muscle actin (SMA), which encircles and stabilizes the maturing vessel. Co-staining for both CD31 and SMA was conducted to determine whether treatments were affecting mature or immature tumor blood vessels.
This example investigated the inhibition the effect of cabozantinib on the formation of new tumor vasculature and on pericytes following procedures analogous to those described above.

Data set [3] relates to RCC patient-derived xenografts (PDXs). Kind of data set: single-animal study in RCC PDX models. Type of data set: in vivo, mouse.
Excerpt: For patient derived xenograft model generation, small pieces of neuroendocrine pancreatic cancers were implanted into female NSG mice (6-8 weeks of age), fragments of Huprime gastric cancers were implanted into female Balb/c nude mice and for a single animal trial in RCC PDX models, tumor fragments from selected RCC PDX models were implanted into mice unilaterally.
as §2
(§6) Body weight and tumor volume were measured twice weekly. Tumor volume was calculated using the formula [tumor volume (mm^3)=π/6×length×width^2] and plotted as means+SEM. The percentage of tumor growth inhibition was calculated at the end of the study using the formula: 100−[1−(ΔT/ΔC)], if ΔT>0, ΔT, mean tumor volume of the drug-treated group on the observation day of the study—mean tumor volume of the drug-treated group on initial day of dosing; ΔC, mean tumor volume of the control group on the observation day of the study—mean tumor volume of the control group on initial day of dosing. Regression was calculated using the formula=100×ΔT/Tinitial, if ΔT<0. Animals with >50% regressions were partial responders. […]

For the next data set, the system named is pPERK in 786-O tumors. The data set can be described thus: pPERK in 786-O tumor xenografts. Type of data set: in vivo, mouse. The settings on record: for pPERK accumulation in 786-O tumors: PD arm, 7 days of dosing, single agent; for pPERK levels in 786-O tumors: single agent PO, several dose levels, 21 days (FIG. 26).
For data set [4], the system named is tumor vasculature and pericyte cells of 786-O xenografts progressed on axitinib. The data set can be described thus: IHC of tumor vasculature and pericytes in 786-O xenografts that progressed on axitinib. Type of data set: in vivo, mouse. The procedure:
as §4, §5
After 14 days of treatments, 77 mice bearing the largest tumors were rerandomized into four PD arms (n=8), four efficacy arms (n=10), and 5 tumors sampled on day of rerandomization as a baseline. The remaining animals were removed from study.

The subject of data set [5] is MFE280 endometrial cancer model. Kind of data set: MFE280 endometrial xenograft tumor growth. The settings on record: single agent: HC-5404 30 mg/kg PO BID or lenvatinib 10 mg/kg QD (FIG. 77). Type of data set: in vivo, mouse. The procedure:
as §1, §2
as §6, with “ΔT<0.” for “ΔT<0. Animals with >50% regressions were partial responders.”

For a further data set, the system named is Caki-1 RCC xenograft. Kind of data set: Caki-1 RCC xenograft tumor growth. The settings on record: HC-5404 or sunitinib monotherapy, compared with A498 (FIG. 32). Type of data set: in vivo, mouse. On the procedure:
as §1, §2, §3

The next data set has as its system A498 RCC xenograft. Kind of data set: A498 RCC xenograft tumor growth. Type of data set: in vivo, mouse. The settings on record: single agent: HC-5404 30 mg/kg PO BID or sunitinib 20 mg/kg PO QD (FIG. 31). On the procedure: as §1, §2, §3
[6] abbreviates: 7 days after rerandomization (FIG. 92).

The source of these data is patent publication US20260373132A1, “PERK INHIBITORHC-5404 IN COMBINATION WITH ANTI-PD-1 ANTIBODY AND/OR AN ANTIANGIOGENETIC AGENT FOR USE IN THE TREATMENT OF CANCER” (HIBERCELL, INC., priority 2022, published 2026).

`CNC(=O)c1ccccc1Sc1ccc2c(/C=C/c3ccccn3)n[nH]c2c1` [axitinib]: the “effect on tumor volume” value in the data set on 786-O RCC xenograft is given as “modest effects on tumor volume”. The body weight loss entry in [1] is “no treatment-associated body weight loss was observed”. The “proportion of Meca32 expressing vascular endothelial cells” value in data set [2] (axitinib study (FIG. 38, 39)) is on record as “decreased”. In [2] (axitinib study (FIG. 39)), the “immature CD31+SMA− vessels” value was “decreased” and the “mature CD31+SMA+ cells” value is reported as “did not affect”. Moreover, in [3] (15 RCC PDX models, 28 days, PR: regression >50% vs baseline (FIG. 35)), the “partial responses (PRs) among models” value was 1/15. The “sensitivity of VHLwt models to axitinib” value in data set [3] (three of the VHLwt models) was “decreased sensitivity to axitinib”. For the same molecule, in the data set with pPERK in 786-O tumors, the “pPERK accumulation in 786-O tumors” value was “induced pPERK accumulation” and the “pPERK levels in 786-O tumors” value is on record as “dose-dependent increases in pPERK”. Moreover, in [4] (setting [6]), the “proportion of cells expressing CD31” value was “decreased by axitinib” and the “proportion of smooth muscle actin (SMA)” value is recorded as “decreased”. The “number of Meca32+ and CD31+ cells” value in data set [4] (FIG. 41, 42) is given as “decreased”. Besides, in [4] (FIG. 43, 44), the “MCAM+ cells” value is listed as “decreased by axitinib”.
Take `COc1cc2nccc(Oc3ccc(NC(=O)C4(C(=O)Nc5ccc(F)cc5)CC4)cc3)c2cc1OC` [cabozantinib]: in the data set with 786-O RCC xenograft (cabozantinib 30 mg/kg QD alone or with HC-5404 10 or 30 mg/kg BID (each group)), the partial responses was 2/8. Besides, the tumor response entry with 786-O RCC xenograft (cabozantinib 30 mg/kg QD monotherapy (FIG. 52)) was “tumor stasis”. Besides, the “effect on tumor volume” value with 786-O RCC xenograft is “modest effects on tumor volume”. Also, the body weight loss entry in [1] is recorded as “no treatment-associated body weight loss was observed”. The mouse body weight entry in [1] (786-O, HC-5404 3, 10, 30 mg/kg BID and/or cabozantinib 30 mg/kg QD (FIG. 53)) was “did not affect mouse body weight”. The “immature vasculature (CD31+SMA− cells)” value in data set [2] (cabozantinib study (FIG. 54, 55)) is reported as “near complete loss of immature vasculature”. Moreover, in the data set with pPERK in 786-O tumors, the “pPERK accumulation in 786-O tumors” value was “induced pPERK accumulation” and the “pPERK levels in 786-O tumors” value is “dose-dependent increases in pPERK”.
On to `COc1cc2nccc(Oc3ccc(NC(=O)NC4CC4)c(Cl)c3)c2cc1C(N)=O` [lenvatinib], for which the TGI % in data set [5] was ~ 85%. The “effect on tumor volume” value in the data set with 786-O RCC xenograft is “modest effects on tumor volume”. Further, the body weight loss entry in data set [1] is “no treatment-associated body weight loss was observed”. Also, in the data set on pPERK in 786-O tumors, the “pPERK accumulation in 786-O tumors” value was “induced pPERK accumulation” and the “pPERK levels in 786-O tumors” value is “dose-dependent increases in pPERK”.
By TGI is commonly meant how far tumour growth fell short of that in controls. Read a high TGI as a stronger effect on the tumour. With `CCN(CC)CCNC(=O)c1c(C)[nH]c(/C=C2\C(=O)Nc3ccc(F)cc32)c1C` [sunitinib, reference compound], in the data set on 786-O RCC xenograft (sunitinib single agent 40 mg/kg QD (FIG. 28)), the “inhibition of 786-O growth” value is listed as “effective inhibitor of 786-O growth”. For the same molecule, the “pPERK accumulation in 786-O tumors” value in the data set with pPERK in 786-O tumors is reported as “induced pPERK accumulation”. Moreover, in the data set with pPERK in 786-O tumors (sunitinib single agent), the “pPERK in 786-O xenografts” value is reported as “increased pPERK” and the “time course of pPERK increase in 786-O xenografts” value was “increased over time”. Further, the “sensitivity of Caki-1 to monotherapy” value with Caki-1 RCC xenograft is given as “far less sensitive”. This molecule registered a TGI with A498 RCC xenograft of 80%.
